Experimental data published in article PMC10657444, “Design and evaluation of tadpole-like conformational antimicrobial peptides” (Communications Biology, 2023).
Values after ≈ are worked out from the molar mass of the structure shown. Like-named read-outs stand apart in the source and are kept apart here.

System: K. pneumoniae ATCC 700603
Experiment: microbe, parasite or virus in culture
Assay type: cell-based, Klebsiella pneumoniae
Conditions: for MIC: Klebsiella pneumoniae
Procedure: MRSA USA 300 and K. pneumoniae ATCC 700603 were employed to assess the development of resistance. From inoculated microtiter panels, an aliquot of the well with the highest concentration permitting growth was taken and back diluted in fresh media to a turbidity of a 0.5 McFarland standard. This suspension was then further diluted and used to inoculate a fresh MIC panel resulting in a final concentration of 5 × 10^6 CFU/mL. Panels were incubated according to CLSI guidelines (M07, 11th edition, 2018), MICs were recorded and the next inoculum was prepared from the well containing the highest concentration of drug that allowed growth in identical fashion as described above.

O=C(O)c1cn(C2CC2)c2cc(N3CCNCC3)c(F)cc2c1=O [ciprofloxacin, reference compound]
MIC (ATCC700603, 0 h, read-out: Concentration (MIC in drug resistance assay), K. pneumoniae ATCC 700603, day 0): 0.25 mg/L (≈ 0.754 µM) | MIC (ATCC700603, 24 h, read-out: Concentration (MIC in drug resistance assay), K. pneumoniae ATCC 700603, day 1): 0.5 mg/L (≈ 1.51 µM) | MIC (ATCC700603, 48 h, read-out: Concentration (MIC in drug resistance assay), K. pneumoniae ATCC 700603, day 2): 1 mg/L (≈ 3.02 µM) | MIC (ATCC700603, 72 h, read-out: Concentration (MIC in drug resistance assay), K. pneumoniae ATCC 700603, day 3): 0.5 mg/L (≈ 1.51 µM) | MIC (ATCC700603, 96 h, read-out: Concentration (MIC in drug resistance assay), K. pneumoniae ATCC 700603, day 4): 1 mg/L (≈ 3.02 µM) | MIC (ATCC700603, 120 h, read-out: Concentration (MIC in drug resistance assay), K. pneumoniae ATCC 700603, day 5): 0.5 mg/L (≈ 1.51 µM) | MIC (ATCC700603, 144 h, read-out: Concentration (MIC in drug resistance assay), K. pneumoniae ATCC 700603, day 6): 1 mg/L (≈ 3.02 µM) | MIC (ATCC700603, 168 h, read-out: Concentration (MIC in drug resistance assay), K. pneumoniae ATCC 700603, day 7): 1 mg/L (≈ 3.02 µM) | MIC (ATCC700603, 192 h, read-out: Concentration (MIC in drug resistance assay), K. pneumoniae ATCC 700603, day 8): 2 mg/L (≈ 6.04 µM) | MIC (ATCC700603, 216 h, read-out: Concentration (MIC in drug resistance assay), K. pneumoniae ATCC 700603, day 9): 1 mg/L (≈ 3.02 µM) | MIC (ATCC700603, 240 h, read-out: Concentration (MIC in drug resistance assay), K. pneumoniae ATCC 700603, day 10): 1 mg/L (≈ 3.02 µM) | MIC (ATCC700603, 264 h, read-out: Concentration (MIC in drug resistance assay), K. pneumoniae ATCC 700603, day 11): 2 mg/L (≈ 6.04 µM) | MIC (ATCC700603, 288 h, read-out: Concentration (MIC in drug resistance assay), K. pneumoniae ATCC 700603, day 12): 2 mg/L (≈ 6.04 µM) | MIC (ATCC700603, 312 h, read-out: Concentration (MIC in drug resistance assay), K. pneumoniae ATCC 700603, day 13): 2 mg/L (≈ 6.04 µM) | MIC (ATCC700603, 336 h, read-out: Concentration (MIC in drug resistance assay), K. pneumoniae ATCC 700603, day 14): 4 mg/L (≈ 12.1 µM) | MIC (ATCC700603, 360 h, read-out: Concentration (MIC in drug resistance assay), K. pneumoniae ATCC 700603, day 15): 4 mg/L (≈ 12.1 µM) | MIC (ATCC700603, 384 h, read-out: Concentration (MIC in drug resistance assay), K. pneumoniae ATCC 700603, day 16): 4 mg/L (≈ 12.1 µM) | MIC (ATCC700603, 408 h, read-out: Concentration (MIC in drug resistance assay), K. pneumoniae ATCC 700603, day 17): 4 mg/L (≈ 12.1 µM) | MIC (ATCC700603, 432 h, read-out: Concentration (MIC in drug resistance assay), K. pneumoniae ATCC 700603, day 18): 4 mg/L (≈ 12.1 µM) | MIC (ATCC700603, 456 h, read-out: Concentration (MIC in drug resistance assay), K. pneumoniae ATCC 700603, day 19): 4 mg/L (≈ 12.1 µM) | MIC (ATCC700603, 480 h, read-out: Concentration (MIC in drug resistance assay), K. pneumoniae ATCC 700603, day 20): 8 mg/L (≈ 24.1 µM) | MIC (ATCC700603, 504 h, read-out: Concentration (MIC in drug resistance assay), K. pneumoniae ATCC 700603, day 21): 4 mg/L (≈ 12.1 µM) | MIC (ATCC700603, 528 h, read-out: Concentration (MIC in drug resistance assay), K. pneumoniae ATCC 700603, day 22): 4 mg/L (≈ 12.1 µM) | MIC (ATCC700603, 552 h, read-out: Concentration (MIC in drug resistance assay), K. pneumoniae ATCC 700603, day 23): 4 mg/L (≈ 12.1 µM) | MIC (ATCC700603, 576 h, read-out: Concentration (MIC in drug resistance assay), K. pneumoniae ATCC 700603, day 24): 4 mg/L (≈ 12.1 µM) | MIC (ATCC700603, 600 h, read-out: Concentration (MIC in drug resistance assay), K. pneumoniae ATCC 700603, day 25): 4 mg/L (≈ 12.1 µM) | MIC (ATCC700603, 624 h, read-out: Concentration (MIC in drug resistance assay), K. pneumoniae ATCC 700603, day 26): 8 mg/L (≈ 24.1 µM) | MIC (ATCC700603, 648 h, read-out: Concentration (MIC in drug resistance assay), K. pneumoniae ATCC 700603, day 27): 8 mg/L (≈ 24.1 µM) | MIC (ATCC700603, 672 h, read-out: Concentration (MIC in drug resistance assay), K. pneumoniae ATCC 700603, day 28): 8 mg/L (≈ 24.1 µM) | MIC (ATCC700603, 696 h, read-out: Concentration (MIC in drug resistance assay), K. pneumoniae ATCC 700603, day 29): 8 mg/L (≈ 24.1 µM) | MIC (ATCC700603, read-out: Concentration (MIC in drug resistance assay), K. pneumoniae ATCC 700603, day 30): 8 mg/L (≈ 24.1 µM) | MIC (ATCC700603, read-out: Concentration (MIC in drug resistance assay), K. pneumoniae ATCC 700603, day 31): 8 mg/L (≈ 24.1 µM) | MIC (ATCC700603, read-out: Concentration (MIC in drug resistance assay), K. pneumoniae ATCC 700603, day 32): 8 mg/L (≈ 24.1 µM) | MIC (ATCC700603, read-out: Concentration (MIC in drug resistance assay), K. pneumoniae ATCC 700603, day 33): 8 mg/L (≈ 24.1 µM) | MIC (ATCC700603, read-out: Concentration (MIC in drug resistance assay), K. pneumoniae ATCC 700603, day 34): 8 mg/L (≈ 24.1 µM) | MIC (ATCC700603, read-out: Concentration (MIC in drug resistance assay), K. pneumoniae ATCC 700603, day 35): 16 mg/L (≈ 48.3 µM) | MIC (ATCC700603, read-out: Concentration (MIC in drug resistance assay), K. pneumoniae ATCC 700603, day 36): 16 mg/L (≈ 48.3 µM) | MIC (ATCC700603, read-out: Concentration (MIC in drug resistance assay), K. pneumoniae ATCC 700603, day 37): 16 mg/L (≈ 48.3 µM) | MIC (ATCC700603, read-out: Concentration (MIC in drug resistance assay), K. pneumoniae ATCC 700603, day 38): 16 mg/L (≈ 48.3 µM) | MIC (ATCC700603, read-out: Concentration (MIC in drug resistance assay), K. pneumoniae ATCC 700603, day 39): 16 mg/L (≈ 48.3 µM) | MIC (ATCC700603, read-out: Concentration (MIC in drug resistance assay), K. pneumoniae ATCC 700603, day 40): 16 mg/L (≈ 48.3 µM) | increase in MIC after 40 passages (serial passage at sub-MIC): 64 fold
